# Test results from patent US11512107B2, “Methods for assembly of tetracyclic compounds by stereoselective C9-C10 bond formation” (Trustees of Dartmouth College, priority 2018, dated 2022).
# Key:
# ERβ [1] = assay: Alkaline phosphatase (ALP) activity in DU-145 prostate cancer cells expressing endogenous ERβ; type: cell-based, human; details: DU-145 cells, 24 hours, 5 μM
# Method: FIG. 2 is a bar graph showing alkaline phosphatase activity in human DU-145 prostate cancer cells (17β-estradiol, Compound 100, and Compound 101 were evaluated at 5 μM).
# The DU-145 prostate cancer cell line only expresses ERβ and can be used as a model to examine the activation of ERβ in the absence of any potential confounding signal driven by ERα. Alkaline phosphatase (ALP) expression is induced in an ER-dependent manner and has been used to characterize the activity of synthetic ER agonists and antagonists.
# In order to examine the ability of Compound 100 and Compound 101 to activate ERβ in the context of a cell line expressing endogenous ERβ, DU-145 cells were treated for 24 hours with either 17β-estradiol, Compound 100, or Compound 101 and ALP activity derived from the cells was examined.
# ERβ [2] = biological target: ERβ (Homo sapiens, UniProt Q92731); assay: ERβ agonist assay (functional activity at estrogen receptors, FIG. 1); type: cell-based; details: for selectivity over ERα: ERβ over ERα, relative to 17β-estradiol; for EC50: read-out: EC50 ERβ agonism
# Method: FIG. 1 is a set of line graphs showing the results of ERβ and ERα agonist assays for Compounds 100 and 101.
# Compounds 100 and 101 were evaluated for their functional activity at estrogen receptors (both ERα and ERβ). 17β-estradiol was used as a control, as it is appreciated to be a potent agonist of both ERα and ERβ.
# U251 and U87 cells [3] = assay: Growth inhibition and viable cell counts of glioblastoma-derived cell lines; type: cell-based, human; details: U251 and U87, after 24 hours, versus TMZ
# Method: FIG. 3A-3B are line graphs depicting (A) dose dependent growth inhibition of U251 and U87 cells treated with Compound 100, Compound 101, TMZ, and vehicle control DMSO (n=4) and (B) viable cell counts of U251 and U87 cells treated with Compound 100, Compound 101, TMZ, and vehicle control DMSO determined every 24 hours for 96 hours (n=4)
# To determine the biological effect of Compound 100 and Compound 101, human glioblastoma-derived cell lines U251 and U87 were treated with varying concentrations of Compound 100, Compound 101, temazolomide (TMZ; a standard of care chemotherapeutic agent), or vehicle-toxicity control, dimethylsulfoxide (DMSO) used at final volumes that were identical to those used to attain all concentrations tested of Compound 100 and Compound 101.
# U251 and U87 cells [4] = assay: Apoptosis by Annexin V / 7-AAD FACS analysis; type: cell-based, human; details: U251 and U87, 24 hours
# Method: FIG. 3C is a flow cytometric analysis of U251 and U87 co-stained with Annexin V-FITC/7-AAD after treatment with Compound 100, Compound 101, TMZ, and vehicle control DMSO (n=4).
# In order to elucidate the mechanism of this cell death, glioblastoma cells treated for 24 hours with Compound 100, Compound 101, TMZ, or DMSO control were analyzed for early and late apoptosis markers (Annexin V and 7-Aminoactinomycin D) by FACS analyses. […] Additionally, over a period of five days, morphological changes in U251 and U87 cells treated with Compound 100 and Compound 101 were tracked using the Incucyte live cell imaging system.
# [5] = test system: human neural stem cells as well as human astrocytes; assay: Cell viability of non-tumour neural cells; type: cell-based; details: at the equivalent concentration
# [6] = Initial in vivo toxicity studies
# Source text: In comparison to 17β-estradiol, Compound 100 and Compound 101 have a unique profile for selective agonism of ERβ (FIG. 1).
# Chain of ERβ (Homo sapiens, UniProt Q92731) (Q92731 whole entry): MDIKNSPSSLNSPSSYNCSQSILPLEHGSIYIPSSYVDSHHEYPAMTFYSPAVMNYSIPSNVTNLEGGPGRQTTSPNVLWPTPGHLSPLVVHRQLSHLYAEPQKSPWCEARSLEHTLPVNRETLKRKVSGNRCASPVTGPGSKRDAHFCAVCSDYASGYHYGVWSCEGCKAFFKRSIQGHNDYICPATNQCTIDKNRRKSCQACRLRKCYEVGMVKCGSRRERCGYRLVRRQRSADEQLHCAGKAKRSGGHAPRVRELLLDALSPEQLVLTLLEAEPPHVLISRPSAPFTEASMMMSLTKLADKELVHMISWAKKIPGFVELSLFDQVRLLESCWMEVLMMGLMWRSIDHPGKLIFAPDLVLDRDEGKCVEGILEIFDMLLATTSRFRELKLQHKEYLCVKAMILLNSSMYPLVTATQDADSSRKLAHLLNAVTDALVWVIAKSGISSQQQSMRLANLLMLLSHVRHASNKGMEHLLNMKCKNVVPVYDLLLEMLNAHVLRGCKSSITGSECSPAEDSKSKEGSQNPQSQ
SMILES,induction of ALP activity (ERβ [1]),selectivity over ERα (ERβ [2]) [fold],EC50 (ERβ [2]) [nM],inhibition of glioma cell growth (IC50): fold lower concentration compared to TMZ (U251 and U87 cells [3]) [fold],"induction of apoptosis, fold higher than TMZ or DMSO controls (U251 and U87 cells [4]) [fold]",cell viability of human neural stem cells and human astrocytes [5],in vivo toxicity [6]
C[C@]12CC[C@@H]3c4ccc(O)cc4CC[C@H]3[C@@H]1CC[C@@H]2O [17β-estradiol],effective in inducing ALP activity,–,–,–,–,–,–
"C[C@@]12CC[C@]3(C)C(=C1C[C@H](O)C2)CCc1cc(O)ccc13 [Compound 101, (9R,13S,16R)-9,13-dimethyl-7,9,11,12,13,15,16,17-octahydro-6H-cyclopenta[a]phenanthrene-3,16-diol]",–,~6,1.9,50,7,not affected,neither compound is toxic
"C[C@]12CC[C@@]3(C)C(=C1C[C@@H](O)C2)CCc1cc(O)ccc13 [Compound 100, (9S,13R,16S)-9,13-dimethyl-7,9,11,12,13,15,16,17-octahydro-6H-cyclopenta[a]phenanthrene-3,16-diol]",–,> 260,0.05,50,7,not affected,neither compound is toxic
